Assay results taken from PMC3399817 (PLoS ONE, 2012).

Key:
B cell migration = system: B cell migration; design: method as in PMID 21123826; conditions: mice ref 15; cited from earlier work
DLD-1 (K-RAS^G13D/+) = assay: Cell cycle analysis (propidium iodide FACS); format: cell-based; conditions: DLD-1 cells
Experimental: Cell cycle analysis was performed via FACS-based propidium iodide quantification, using standard methods. To measure cell viability, cells were grown in 96-well plates in the presence or absence of drug for 72 hours, fixed with 4% paraformaldehyde, and then stained with Syto60 (Invitrogen). Plates were imaged and quantified using the LiCor Odyssey system (LiCor).

DCAMKL2 = biological target: T1, DCAMKL2 (Homo sapiens, UniProt Q8N568); assay: KINOMEscan; format: binding; conditions: DCAMKL2, 1 uM
T1 construct: purchased Ambit KINOMEscan (DiscoverX)
How it was run: (§1)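 Panel profiling at one dose (1 μM) identifies kinases prevented from binding substrate by the test molecule.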

VRK2 = biological target: T2, VRK2 (Homo sapiens, UniProt Q86Y07); assay: KINOMEscan; format: binding; conditions: VRK2, 1 uM
T2 construct: purchased Ambit KINOMEscan (DiscoverX)
How it was run: as §1

MET(M1250T) = biological target: T3, MET(M1250T) (Homo sapiens, UniProt P08581, M1250T); assay: KINOMEscan; format: binding; conditions: 1 uM
T3 construct: purchased Ambit KINOMEscan (DiscoverX)
How it was run: as §1

CDK4-cyclinD1 = biological target: T4, CDK4-cyclinD1 (Homo sapiens, UniProt P11802); assay: KINOMEscan; format: binding; conditions: CDK4-cyclinD1, 1 uM
T4 construct: purchased Ambit KINOMEscan (DiscoverX)
How it was run: as §1

PIP5K1C = biological target: T5, PIP5K1C (Homo sapiens, UniProt O60331); assay: KINOMEscan; format: binding; conditions: 1 uM
T5 construct: purchased Ambit KINOMEscan (DiscoverX)
How it was run: as §1

MST1R = biological target: T6, MST1R (Homo sapiens, UniProt Q04912); assay: KINOMEscan; format: binding; conditions: 1 uM
T6 construct: purchased Ambit KINOMEscan (DiscoverX)
How it was run: as §1

IRAK4 = biological target: T7, IRAK4 (Homo sapiens, UniProt Q9NWZ3); assay: KINOMEscan; format: binding; conditions: IRAK4, 1 uM
T7 construct: purchased Ambit KINOMEscan (DiscoverX)
How it was run: as §1

EPHA7 = biological target: T8, EPHA7 (Homo sapiens, UniProt Q15375); assay: KINOMEscan; format: binding; conditions: EPHA7, 1 uM
T8 construct: purchased Ambit KINOMEscan (DiscoverX)
How it was run: as §1

[1] = biological target: T9, EGFR(L747-E749del, A750P) (Homo sapiens, UniProt P00533, A750P/DEL747-749); assay: KINOMEscan; format: binding; conditions: 1 uM
T9 construct: purchased Ambit KINOMEscan (DiscoverX)
How it was run: as §1

TRPM6 = biological target: T10, TRPM6 (Homo sapiens, UniProt Q9BX84); assay: KINOMEscan; format: binding; conditions: TRPM6, 1 uM
T10 construct: purchased Ambit KINOMEscan (DiscoverX)
How it was run: as §1

FLT3(K663Q) = biological target: T11, FLT3(K663Q) (Homo sapiens, UniProt P36888, K663Q); assay: KINOMEscan; format: binding; conditions: 1 uM
T11 construct: purchased Ambit KINOMEscan (DiscoverX)
How it was run: as §1

NEK3 = biological target: T12, NEK3 (Homo sapiens, UniProt P51956); assay: KINOMEscan; format: binding; conditions: NEK3, 1 uM
T12 construct: purchased Ambit KINOMEscan (DiscoverX)
How it was run: as §1

T9 sequence (P00533 with tags, fused parts or gaps DEL747-749/A750P limits assumed): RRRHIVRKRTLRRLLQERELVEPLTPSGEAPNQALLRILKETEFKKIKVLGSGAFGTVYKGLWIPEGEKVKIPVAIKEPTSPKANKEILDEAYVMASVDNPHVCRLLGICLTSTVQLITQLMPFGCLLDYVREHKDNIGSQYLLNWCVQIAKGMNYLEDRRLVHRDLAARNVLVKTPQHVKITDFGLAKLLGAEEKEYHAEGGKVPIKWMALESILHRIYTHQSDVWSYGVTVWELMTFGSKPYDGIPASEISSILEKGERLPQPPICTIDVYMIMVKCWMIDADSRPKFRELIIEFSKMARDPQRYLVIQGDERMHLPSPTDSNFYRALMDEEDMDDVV
T12 sequence (P51956 whole entry): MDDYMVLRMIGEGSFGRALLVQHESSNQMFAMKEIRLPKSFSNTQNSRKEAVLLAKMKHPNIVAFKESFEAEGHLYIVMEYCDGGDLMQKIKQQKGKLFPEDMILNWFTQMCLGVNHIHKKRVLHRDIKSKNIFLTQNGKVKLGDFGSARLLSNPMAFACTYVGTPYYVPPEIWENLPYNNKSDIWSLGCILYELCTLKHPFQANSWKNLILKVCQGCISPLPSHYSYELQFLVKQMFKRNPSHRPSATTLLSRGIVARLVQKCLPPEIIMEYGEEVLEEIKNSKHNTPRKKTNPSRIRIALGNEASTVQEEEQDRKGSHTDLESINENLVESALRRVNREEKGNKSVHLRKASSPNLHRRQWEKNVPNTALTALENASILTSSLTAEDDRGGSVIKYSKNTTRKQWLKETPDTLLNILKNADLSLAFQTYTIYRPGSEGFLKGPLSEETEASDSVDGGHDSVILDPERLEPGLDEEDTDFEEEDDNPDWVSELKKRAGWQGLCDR
T1 sequence (Q8N568 whole entry): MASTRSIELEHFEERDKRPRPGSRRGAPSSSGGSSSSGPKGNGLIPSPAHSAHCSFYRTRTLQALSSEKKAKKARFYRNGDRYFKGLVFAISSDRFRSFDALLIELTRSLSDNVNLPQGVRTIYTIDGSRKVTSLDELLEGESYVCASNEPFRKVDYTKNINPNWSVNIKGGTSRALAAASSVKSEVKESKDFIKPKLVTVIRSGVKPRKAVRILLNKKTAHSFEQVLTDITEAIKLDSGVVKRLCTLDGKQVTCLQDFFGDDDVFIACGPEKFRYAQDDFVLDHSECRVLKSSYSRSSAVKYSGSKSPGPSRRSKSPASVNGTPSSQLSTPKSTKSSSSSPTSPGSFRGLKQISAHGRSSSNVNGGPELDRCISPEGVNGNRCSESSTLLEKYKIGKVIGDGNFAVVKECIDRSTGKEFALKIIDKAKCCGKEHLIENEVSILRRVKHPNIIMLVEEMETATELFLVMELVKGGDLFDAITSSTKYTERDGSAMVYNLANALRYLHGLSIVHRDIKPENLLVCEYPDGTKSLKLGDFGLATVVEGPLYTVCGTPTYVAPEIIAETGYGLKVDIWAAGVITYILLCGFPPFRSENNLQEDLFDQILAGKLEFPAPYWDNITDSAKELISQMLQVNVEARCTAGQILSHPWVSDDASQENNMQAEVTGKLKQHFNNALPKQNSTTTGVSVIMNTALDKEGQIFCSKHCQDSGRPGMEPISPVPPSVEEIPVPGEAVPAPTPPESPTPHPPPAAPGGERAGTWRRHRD
T8 sequence (Q15375 28-998): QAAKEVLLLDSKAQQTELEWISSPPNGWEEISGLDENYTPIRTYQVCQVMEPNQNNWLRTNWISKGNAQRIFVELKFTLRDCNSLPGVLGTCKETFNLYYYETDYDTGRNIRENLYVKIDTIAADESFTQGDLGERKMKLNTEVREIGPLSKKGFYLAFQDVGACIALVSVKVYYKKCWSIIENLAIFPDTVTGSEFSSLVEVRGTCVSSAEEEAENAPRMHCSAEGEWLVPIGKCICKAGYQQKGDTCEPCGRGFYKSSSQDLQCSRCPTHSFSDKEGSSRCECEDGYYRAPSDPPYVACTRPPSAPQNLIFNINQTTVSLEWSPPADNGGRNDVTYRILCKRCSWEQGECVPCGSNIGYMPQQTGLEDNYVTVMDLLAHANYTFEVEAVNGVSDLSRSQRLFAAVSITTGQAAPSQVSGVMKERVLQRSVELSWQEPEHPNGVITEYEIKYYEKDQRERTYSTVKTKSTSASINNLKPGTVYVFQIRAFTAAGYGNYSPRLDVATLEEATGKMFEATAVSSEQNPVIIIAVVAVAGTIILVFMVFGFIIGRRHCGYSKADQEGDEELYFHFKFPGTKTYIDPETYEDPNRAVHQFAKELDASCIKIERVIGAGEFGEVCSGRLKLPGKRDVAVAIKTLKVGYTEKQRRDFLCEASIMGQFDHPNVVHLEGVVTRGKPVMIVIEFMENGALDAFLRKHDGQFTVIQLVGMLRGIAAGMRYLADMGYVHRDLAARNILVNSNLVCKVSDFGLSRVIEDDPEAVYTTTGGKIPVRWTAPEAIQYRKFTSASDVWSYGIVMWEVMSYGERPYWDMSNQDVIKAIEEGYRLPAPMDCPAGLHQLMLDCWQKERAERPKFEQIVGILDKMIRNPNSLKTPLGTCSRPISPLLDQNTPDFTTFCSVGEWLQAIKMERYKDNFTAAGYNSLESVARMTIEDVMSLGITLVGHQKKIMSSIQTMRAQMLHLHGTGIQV
T2 sequence (Q86Y07 whole entry): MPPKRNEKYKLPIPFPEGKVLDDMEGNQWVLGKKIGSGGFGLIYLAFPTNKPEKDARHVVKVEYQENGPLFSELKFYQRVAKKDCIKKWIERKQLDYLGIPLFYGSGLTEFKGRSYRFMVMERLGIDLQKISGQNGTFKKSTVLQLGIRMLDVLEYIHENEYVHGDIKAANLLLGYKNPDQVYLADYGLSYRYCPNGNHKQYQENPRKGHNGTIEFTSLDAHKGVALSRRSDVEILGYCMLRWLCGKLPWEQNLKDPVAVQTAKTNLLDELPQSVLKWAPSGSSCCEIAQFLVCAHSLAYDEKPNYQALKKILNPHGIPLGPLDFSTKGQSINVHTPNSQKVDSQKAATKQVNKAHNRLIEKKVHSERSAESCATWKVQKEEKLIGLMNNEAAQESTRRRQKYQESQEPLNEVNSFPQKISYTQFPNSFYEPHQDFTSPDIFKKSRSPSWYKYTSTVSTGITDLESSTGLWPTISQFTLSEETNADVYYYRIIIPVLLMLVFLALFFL
T4 sequence (P11802 whole entry): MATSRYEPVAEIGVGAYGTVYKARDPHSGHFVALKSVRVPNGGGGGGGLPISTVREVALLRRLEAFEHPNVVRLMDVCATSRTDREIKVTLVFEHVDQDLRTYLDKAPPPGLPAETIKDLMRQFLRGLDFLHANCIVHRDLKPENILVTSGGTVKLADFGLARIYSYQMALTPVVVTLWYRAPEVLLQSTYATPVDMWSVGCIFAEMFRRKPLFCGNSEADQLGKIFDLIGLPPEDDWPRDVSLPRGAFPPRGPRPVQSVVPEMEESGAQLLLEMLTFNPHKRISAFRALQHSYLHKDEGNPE
T4 sequence (P24385 whole entry partner): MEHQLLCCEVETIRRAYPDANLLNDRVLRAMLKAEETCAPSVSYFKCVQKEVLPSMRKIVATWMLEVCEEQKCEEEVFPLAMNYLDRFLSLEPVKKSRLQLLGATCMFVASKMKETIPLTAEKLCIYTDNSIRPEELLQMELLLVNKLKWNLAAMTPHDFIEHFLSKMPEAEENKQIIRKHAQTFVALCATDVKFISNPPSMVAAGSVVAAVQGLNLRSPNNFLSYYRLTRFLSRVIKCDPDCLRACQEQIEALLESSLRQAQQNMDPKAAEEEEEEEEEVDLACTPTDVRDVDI
T7 sequence (Q9NWZ3 whole entry): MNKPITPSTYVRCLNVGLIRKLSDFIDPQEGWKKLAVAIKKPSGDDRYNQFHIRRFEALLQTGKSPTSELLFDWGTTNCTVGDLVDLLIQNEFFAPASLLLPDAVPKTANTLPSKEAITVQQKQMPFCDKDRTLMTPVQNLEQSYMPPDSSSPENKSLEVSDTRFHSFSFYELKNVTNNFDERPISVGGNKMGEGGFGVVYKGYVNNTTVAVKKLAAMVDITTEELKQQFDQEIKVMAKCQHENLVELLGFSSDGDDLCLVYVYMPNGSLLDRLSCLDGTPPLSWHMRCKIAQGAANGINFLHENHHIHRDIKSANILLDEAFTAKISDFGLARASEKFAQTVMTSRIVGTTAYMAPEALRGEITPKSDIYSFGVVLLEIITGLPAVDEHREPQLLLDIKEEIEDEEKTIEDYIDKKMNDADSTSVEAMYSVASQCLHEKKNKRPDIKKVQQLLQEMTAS
T5 sequence (O60331 whole entry): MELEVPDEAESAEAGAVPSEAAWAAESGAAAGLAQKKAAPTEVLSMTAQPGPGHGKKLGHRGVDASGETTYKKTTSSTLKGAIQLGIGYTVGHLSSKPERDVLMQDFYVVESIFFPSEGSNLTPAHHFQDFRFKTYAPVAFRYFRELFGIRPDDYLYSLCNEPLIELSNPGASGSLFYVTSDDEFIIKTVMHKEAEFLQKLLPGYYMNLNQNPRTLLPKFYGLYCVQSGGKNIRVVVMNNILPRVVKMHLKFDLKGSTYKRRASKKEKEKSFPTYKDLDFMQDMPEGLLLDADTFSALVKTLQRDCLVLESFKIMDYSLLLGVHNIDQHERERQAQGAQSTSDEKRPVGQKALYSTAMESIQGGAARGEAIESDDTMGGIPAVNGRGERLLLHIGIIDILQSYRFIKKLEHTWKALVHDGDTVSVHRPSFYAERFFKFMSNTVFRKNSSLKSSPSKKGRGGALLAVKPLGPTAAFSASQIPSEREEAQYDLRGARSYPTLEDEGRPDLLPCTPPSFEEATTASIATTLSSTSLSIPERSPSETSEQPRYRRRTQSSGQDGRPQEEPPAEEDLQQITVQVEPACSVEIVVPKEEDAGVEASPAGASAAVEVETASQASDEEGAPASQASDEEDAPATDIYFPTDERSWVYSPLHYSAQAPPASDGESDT

Structure (SMILES)	B cell migration (B cell migration)	apoptosis (DLD-1 (K-RAS^G13D/+))	cell cycle profile (DLD-1 (K-RAS^G13D/+); propidium iodide)	% binding compared to no inhibitor control (DCAMKL2) [%]	% binding compared to no inhibitor control (VRK2) [%]	% binding compared to no inhibitor control (MET(M1250T)) [%]	% binding compared to no inhibitor control (CDK4-cyclinD1) [%]	% binding compared to no inhibitor control (PIP5K1C) [%]	% binding compared to no inhibitor control (MST1R) [%]	% binding compared to no inhibitor control (IRAK4) [%]	% binding compared to no inhibitor control (EPHA7) [%]	% binding compared to no inhibitor control [1] [%]	% binding compared to no inhibitor control (TRPM6) [%]	% binding compared to no inhibitor control (FLT3(K663Q)) [%]	% binding compared to no inhibitor control (NEK3) [%]
COc1ccc(-c2cc3nccn3c(Nc3ncccc3C(N)=O)n2)cc1OC.Cl.Cl [BAY61-3606, 2-[7-(3,4-dimethoxyphenyl)-imidazo [1,2-c]pyrimidin-5-ylamino] nicotinamide dihydrochloride, reference compound]	suppresses	nor did it induce apoptosis	did not alter the cell cycle profile	–	–	–	–	–	–	–	–	–	–	–	–
COc1ccccc1Nc1nc(-c2ccc(OC)c(OC)c2)cc2nccn12 [BAY derivative 6]	–	–	–	100	88	100	100	71	100	100	100	74	95	63	100
